Results reported in the NIST ThermoML archive (doi:10.1021/je060002k).
Numbers after ± are expanded uncertainties.

Details: Liquid

Structure (SMILES): CC(C)CC(C)(C)C [2,2,4-trimethylpentane]
- vapor or sublimation pressure (372.35 K): 101.33 ± 3 kPa

Structure (SMILES): CCO [ethanol]
- vapor or sublimation pressure (351.45 K): 101.33 ± 3 kPa

Structure (SMILES): CCCCCC [hexane]
- vapor or sublimation pressure (341.85 K): 101.33 ± 3 kPa

Structure (SMILES): Cc1ccccc1 [toluene]
- vapor or sublimation pressure (383.75 K): 101.33 ± 3 kPa
